This note sets out measurements from patent US8822705B2, “Pharmaceutical composition for preventing and/or treating bone disease, functional food or health food and pharmaceutical preparation comprising thereof as active ingredient” (priority 2006, dated 2014).

The structures appear in SMILES notation. “Also recorded” adds a separate entry of the source.

In data set [1] the test system is MC3T3-E1 cells. As to the kind of experiment: Osteoblast differentiation, ALP activity in MC3T3-E1 cells. The class given is cell-based, mouse. Conditions: incubated 7 to 21 days with test sample, absorbance at 405 nm, FIGS. 1A to 1D. As to the method: (§1) MC3T3-E1 cells, pre-osteoblast cells, were suspended in α-MEM and plated in each well of the 96 well-microplate with 4×10^3 cells/well. Then, they were pre-incubated for 2 days at 37° C., 5% CO2 incubator. On day 3 from the beginning of the pre-incubation, culture medium in the wells were changed to α-MEM containing each concentration of test sample, 50 μg/mL of ascorbic acid and 10 mM β-glycerophosphoric acid, and then incubated for 7 to 21 days. In the incubation, the culture medium in the wells was exchanged in every 3 or 4 days.
After the incubation period, the cells were fixed by using methanol. After drying the dish, activity of alkaline phosphatase (ALP), a marker enzyme of early stage osteoblast differentiation, was measured, and subjected to ALP staining.
In the measurement of ALP activity, a buffer containing 6.7 mM p-nitrophenylphosphate as a substrate, supplemented 2 mM magnesium chloride and 100 mM tris-HCl, pH 8.5. 100 μL of the buffer was plated in each well, incubated in 30 minutes at 37° C. Then, 100 μl of 0.1 N sodium hydroxide was added to the wells to terminate the reaction. After that, the absorbance at 405 nm was measured by using the plate reader and the absorbance value was used as ALP activity.
In ALP staining, the buffer containing 0.1 mg/ml naphtol AS-MX phosphate, 0.6 mg/ml fast blue BB salt, supplemented 2 mM magnesium chloride and 10 mM tris-HCl pH 8.5 was used. 50 μL of the buffer was added to each well of the 96 well-microplate and incubated for 30 minutes to 1 hour to stain.

Data set [2] concerns MC3T3-E1 cells. Nature of the data set: Cytotoxicity by Cell Counting kit-8 or MTT (total cell numbers). The class given is cell-based, mouse. Conditions: for cell number decreasing (cytotoxicity): by 30 μM. As to the method: After incubation of the same condition as described above, cytotoxicity was measured by using the Cell counting kit-8 or MTT according to the conventional method.
Cytotoxicity was measured by using Cell Counting kit-8 or MTT according to conventional method, after MC3T3-E1 was incubated in the same conditions as (2) described above.
(Tetrazolium dyes change colour on reduction, which living cells bring about.)

Data set [3] deals with MC3T3-E1 cells. As to the kind of experiment: Calcification of calcium by osteoblast, Alizarin red S staining. The class given is cell-based, mouse. How it is done: as §1
Calcification of osteoblast cells were confirmed by Alizarin red S staining.
Effects of the above-mentioned four compounds and glycosides to the calcification of calcium by osteoblast were shown in FIG. 5.

The subject of data set [4] is excised first molar of C57BL/6 mice grafted under capsule of kidney. As to the kind of experiment: Graft culture of excised tooth with impregnated agarose beads under kidney capsule, alveolar bone formation. The class given is in vivo, mouse. Conditions: three agarose beads impregnated in 100 μM acerogenin A embedded into dental pulp, 3 weeks graft culture, compared to D-PBS bead negative control; FIG. 4B. As to the method:
Agarose beads impregnated in acerogenin A (hereinbelow, it is referred to as “acerogenin A-impregnated beads”) were prepared as follows. acerogenin A was diluted to 100 μM (at final concentration) by using D-PBS. Affi-Gel agarose beads were washed by using PBS. Washed agarose beads were placed in the 1.5 mL Eppendorf tube with flat bottom and 100 μL of the acerogenin A solution was added into it. Then, the tube was incubated at room temperature for 45 minutes to impregnated acerogenin A into the agarose beads. Acerogenin-impregnated agarose beads obtained were used for embedding under dental pulp in below.
Alternatively, as negative control, agarose beads similarly to prepare the acerogenin A-impregnated beads but impregnated in D-PBS without acerogenin A (hereinbelow, it is referred to as “D-PBS-impregnated beads”) were used.
Five days age of […] mice, where their dental roots-periodontal tissue was just before formed, were anesthetized and sacrificed by decapitation. After excised lower jaw of them, the first molars in the lower jaw were excised with dental follicles. For the test group, three acerogenin A-impregnated agarose beads were embedded into the dental pulp of the excised teeth, the first molar in the lower jaw. […]

In the case of `Oc1ccc2cc1Oc1ccc(cc1)CC[C@H](O)CCCC2` [acerogenin A, 2-Oxatricyclo[13.2.2.13,7]eicosa-3,5,7 (20),15,17,18-hexaene-4,12-diol, (12R)-(9CI)], the “ALP activity (early stage osteoblast differentiation)” value in the data set with MC3T3-E1 cells [1] was “enhanced ALP activity”. Also, in the data set on MC3T3-E1 cells [2] (FIGS. 2A and C), the “cell numbers (cytotoxicity)” value is listed as “not affected” and the “cell numbers (cytotoxicity) at high concentration” value is “slightly decreased”. For the same molecule, the “calcification activity level of calcium, rank order” value (shortened to “calcification activity level”) with MC3T3-E1 cells [3] is “(R)-acerogenin B>aceroside I≅acerogenin A>aceroside B1”. The “alveolar bone formation of grafted tooth” value in data set [4] is listed as “prominent extension of alveolar bone formation”.

Take `OC[C@H]1O[C@@H](Oc2ccc3cc2Oc2ccc(cc2)CCCC[C@@H](O)CC3)[C@H](O)[C@@H](O)[C@@H]1O` [aceroside B1, α-D-Glucopyranoside,(10R)-10-hydroxy-2-oxatricyclo[13.2.2.13,7]eicosa-3,5,7(20),15,17,18-hexaen-4-yl (9CI)]: the “ALP activity (early stage osteoblast differentiation)” value with MC3T3-E1 cells [1] is on record as “enhanced ALP activity”. For the same molecule, the “cell number decreasing (cytotoxicity)” value in the data set with MC3T3-E1 cells [2] (FIGS. 2B and D) is recorded as “not observed”. In the data set on MC3T3-E1 cells [2] (by 100 μM, FIGS. 2B and D), the “cell numbers (cytotoxicity)” value is given as “not affected”. Besides, the “calcification activity level” value in the data set with MC3T3-E1 cells [3] is “(R)-acerogenin B>aceroside I≅acerogenin A>aceroside B1”.

Consider `Oc1ccc2cc1Oc1ccc(cc1)CCCC[C@@H](O)CC2` [(R)-acerogenin B, 2-Oxatricyclo[13.2.2.13,7]eicosa-3,5,7(20),15,17,18-hexaene-4,10-diol, (10R)-(9CI)], for which the “ALP activity (early stage osteoblast differentiation)” value in the data set with MC3T3-E1 cells [1] was “enhanced ALP activity”. In the data set on MC3T3-E1 cells [2] (FIGS. 2B and D), the “cell number decreasing (cytotoxicity)” value is recorded as “not observed”. Moreover, the “cell numbers (cytotoxicity)” value with MC3T3-E1 cells [2] (by 100 μM, FIGS. 2B and D) is recorded as “not affected”. The “calcification activity level” value in the data set with MC3T3-E1 cells [3] is listed as “(R)-acerogenin B>aceroside I≅acerogenin A>aceroside B1”.

In the case of `OC[C@H]1O[C@H](Oc2ccc3cc2Oc2ccc(cc2)CC[C@@H](O)CCCC3)[C@H](O)[C@@H](O)[C@@H]1O` [aceroside I, α-D-Glucopyranoside, (12S)-12-hydroxy-2-oxatricyclo[13.2.2.13,7]eicosa-3,5,7(20),15,17,18-hexaen-4-yl (9CI)], the “ALP activity (early stage osteoblast differentiation)” value with MC3T3-E1 cells [1] is on record as “enhanced ALP activity; also recorded: dose-dependently enhanced”. In the data set with MC3T3-E1 cells [2] (FIGS. 2A and C), the “cell numbers (cytotoxicity)” value is given as “not affected” and the “cell numbers (cytotoxicity) at high concentration” value is on record as “slightly decreased”. Besides, the “calcification activity level” value in the data set with MC3T3-E1 cells [3] is “(R)-acerogenin B>aceroside I≅acerogenin A>aceroside B1”.
